Data on three compounds can be found in ChEMBL document CHEMBL1148854, “Synthesis and biological evaluation of unprecedented classes of spiro-beta-lactams and azido-beta-lactams as acyl-CoA:cholesterol acyltransferase inhibitors” (Bioorg Med Chem Lett, 2007).

For assay [1], the target named is T1, Acyl-CoA:cholesterol acyltransferase (Oryctolagus cuniculus, UniProt Q95214).
T1 sequence (Q95214 whole entry): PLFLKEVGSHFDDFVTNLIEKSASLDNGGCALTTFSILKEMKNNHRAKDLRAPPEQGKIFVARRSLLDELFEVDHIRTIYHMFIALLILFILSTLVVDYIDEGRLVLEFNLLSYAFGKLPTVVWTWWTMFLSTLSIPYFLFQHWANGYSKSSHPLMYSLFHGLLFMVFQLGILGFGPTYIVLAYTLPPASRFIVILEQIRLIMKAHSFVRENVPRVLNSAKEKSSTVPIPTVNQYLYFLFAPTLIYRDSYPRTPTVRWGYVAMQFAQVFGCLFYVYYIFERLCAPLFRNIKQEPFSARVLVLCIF
Description: Inhibition of ACAT in Albino rabbit intestinal mucosa.

Assay [2] addresses T2, Acyl-CoA:cholesterol acyltransferase (Oryctolagus cuniculus) (UniProt Q95214).
T2 sequence (whole entry): T1 sequence (Q95214 whole entry)
The assay can be described thus: Inhibition of ACAT in Albino rabbit intestinal mucosa at 10 uM.

With `CC[C@H](C)C(=O)O[C@H]1C[C@@H](C)C=C2C=C[C@H](C)[C@H](CC[C@@H]3C[C@@H](O)CC(=O)O3)[C@H]21` [LOVASTATIN], half-maximal inhibition in assay [1] (IC50) required 16.8 µM. This counts as double-digit micromolar.

On to `CC[C@H](N=[N+]=[N-])[C@H](O)[C@]1(Br)C(=O)N([C@@H](C)c2ccccc2)[C@H]1c1ccccc1`, for which the inhibition (in general, the share of the control response that was lost under treatment) in assay [2] worked out at 60%. On to `CC[C@@H](N=[N+]=[N-])[C@@H](O)[C@]1(Br)C(=O)N([C@@H](C)c2ccccc2)[C@H]1c1ccccc1`, for which, in assay [2], the inhibition is 65%.
